PubChem BioAssay (NCI)
Values joined by “and” are separate entries in the source; they are usually repeats but may differ in a detail not shown here. Equal values may be shown once.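 1) Cells in 96-well plates. 2) Compound, 48 h, 5 concentrations. 3) Linear interpolation between surrounding doses. 4) Unreached endpoint = highest concentration. GI50 is the concentration that inhibits growth by half. TGI marks complete inhibition of growth.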

How the values were obtained:
Assay in all cases: DTP human tumour cell line panel, 48 h
[1] = test system: SF-268 CNS
[2] = test system: U251 CNS
[3] = test system: SK-MEL-5 melanoma
[4] = test system: OVCAR-8 ovarian
[5] = test system: ACHN renal
[6] = test system: SK-OV-3 ovarian
[7] = test system: T-47D breast
[8] = test system: OVCAR-5 ovarian
[9] = test system: SW-620 colon
[10] = test system: RPMI-8226 leukemia

CC[C@@]1(O)C(=O)OCc2c1cc1n(c2=O)Cc2cc3cc(Cl)ccc3nc2-1
GI50 [1]: 0.00403 µM | GI50 [2]: 1.97 nM | TGI [2]: 0.0234 µM | GI50 [3]: 8.2 nM and 18.1 nM | TGI [3]: 0.0501 µM and 0.0636 µM | GI50 [4]: 1.17 nM and 11.2 nM | TGI [4]: 0.109 µM and 0.203 µM | GI50 [5]: 2.28 nM | TGI [5]: 0.0107 µM | GI50 [6]: 0.0152 µM | TGI [6]: 39.9 µM | GI50 [7]: 3.35 nM | TGI [7]: 0.167 µM | GI50 [8]: 0.0635 µM and 0.0706 µM | TGI [8]: 0.363 µM and 0.318 µM | TGI [9]: 2.37 µM and 5.23 µM | GI50 [10]: 13.2 nM and 33.4 nM

Nc1n[n+]([O-])c2cc([N+](=O)[O-])ccc2[n+]1[O-]
TGI [2]: 18.5 µM | TGI [3]: 20.6 µM | TGI [4]: 20.5 µM | TGI [5]: 14.4 µM | TGI [6]: 61.2 µM | TGI [7]: 18.6 µM | TGI [8]: 42.2 µM | TGI [9]: > 100 µM | TGI [10]: > 100 µM

O=C(COc1ccc(/C=C2\Oc3ccc4ccccc4c3C2=O)cc1)c1ccc([N+](=O)[O-])cc1
GI50 [1]: 13.2 µM | TGI [1]: 33.7 µM | GI50 [2]: 13100 nM | TGI [2]: 25.8 µM | GI50 [3]: 13200 nM | TGI [3]: 28.9 µM | GI50 [4]: 4880 nM | TGI [4]: 23.2 µM | GI50 [5]: 28300 nM | TGI [5]: 88.2 µM | GI50 [6]: 24.2 µM | TGI [6]: 73.7 µM | GI50 [7]: 2850 nM | TGI [7]: 23.8 µM | GI50 [8]: 16.4 µM | TGI [8]: 30.7 µM | GI50 [9]: 3.88 µM | TGI [9]: 14.1 µM | GI50 [10]: 1600 nM | TGI [10]: 5.11 µM

O=c1cc(-c2ccc(Cl)cc2)[nH]c2ccccc12
GI50 [1]: 83.3 µM | TGI [1]: > 100 µM | GI50 [2]: 41500 nM | TGI [2]: > 100 µM | GI50 [3]: 26700 nM | TGI [3]: > 100 µM | GI50 [4]: > 100000 nM | TGI [4]: > 100 µM | GI50 [5]: 57800 nM | TGI [5]: > 100 µM | GI50 [6]: 44.8 µM | TGI [6]: > 100 µM | GI50 [7]: 63200 nM | TGI [7]: > 100 µM | GI50 [8]: > 100 µM | TGI [8]: > 100 µM | GI50 [9]: 27.7 µM | TGI [9]: > 100 µM | GI50 [10]: 46900 nM | TGI [10]: > 100 µM

Cc1cccc(C(C)(C)C)c1NC(=O)C(C#N)C1=C(Cl)C(=O)c2ccccc2C1=O (stereo not drawn)
TGI [1]: 31.2 µM | TGI [2]: 31.3 µM | TGI [3]: 31.5 µM | TGI [4]: 37.4 µM | TGI [5]: 27.6 µM | TGI [6]: 40.2 µM | TGI [7]: 26.1 µM | TGI [8]: 32 µM | TGI [9]: 36.3 µM | TGI [10]: 49.2 µM

COc1ccc(-n2cc(-c3cc(OC)c(OC)c(OC)c3)nc2SCc2ccc(Cl)cc2)cc1OC
GI50 [1]: > 100 µM | TGI [1]: > 100 µM | GI50 [2]: > 100000 nM | TGI [2]: > 100 µM | GI50 [3]: 41700 nM | TGI [3]: > 100 µM | GI50 [4]: > 100000 nM | TGI [4]: > 100 µM | GI50 [5]: > 100000 nM | TGI [5]: > 100 µM | GI50 [6]: > 100 µM | TGI [6]: > 100 µM | GI50 [7]: 15100 nM | TGI [7]: > 100 µM | GI50 [8]: > 100 µM | TGI [8]: > 100 µM | GI50 [9]: > 100 µM | TGI [9]: > 100 µM | GI50 [10]: > 100000 nM | TGI [10]: > 100 µM

CC1(C)OB(c2ccc(N(CCOS(C)(=O)=O)CCOS(C)(=O)=O)cc2)OC1(C)C
GI50 [1]: 23 µM | TGI [1]: > 83.7 µM | GI50 [2]: 8660 nM | TGI [2]: 34.7 µM | GI50 [3]: 16200 nM | TGI [3]: 38.2 µM | GI50 [4]: 21700 nM | TGI [4]: > 92.3 µM | GI50 [5]: 3000 nM | TGI [5]: 14.2 µM | GI50 [6]: 34.3 µM | TGI [6]: > 100 µM | GI50 [7]: 18100 nM | TGI [7]: > 100 µM | GI50 [8]: 25.4 µM | TGI [8]: 48.3 µM | GI50 [9]: 17.1 µM | TGI [9]: > 100 µM | GI50 [10]: 7750 nM | TGI [10]: > 72.5 µM

O=C1Cc2c(-c3ccccc3)cc(-c3ccccc3)nc2-c2ccccc2N1
TGI [1]: 19.3 µM | TGI [2]: 20 µM | TGI [3]: 7.58 µM | TGI [4]: 21 µM | GI50 [5]: 4040 nM | TGI [5]: 19 µM | TGI [6]: 18.9 µM | TGI [7]: 38.4 µM | TGI [8]: 21.2 µM | TGI [9]: 82.5 µM | TGI [10]: > 100 µM

O=C(O)C1C2C=CC(O2)C1C(=O)NCc1cccnc1 (stereo not drawn)
TGI [1]: > 100 µM | TGI [2]: > 100 µM | TGI [3]: > 100 µM | TGI [4]: > 100 µM | TGI [5]: > 100 µM | TGI [6]: > 100 µM | TGI [7]: > 100 µM | TGI [8]: > 100 µM | TGI [9]: > 100 µM | TGI [10]: > 100 µM

Cc1ccc2c(c1)[n+](=O)c(C(=O)c1cccs1)c(C(F)(F)F)n2[O-]
GI50 [1]: 0.881 µM and 0.108 µM | TGI [1]: 3.31 µM and 0.511 µM | GI50 [2]: 1600 nM and 906 nM | TGI [2]: 10.1 µM and 14.3 µM | GI50 [3]: 648 nM and 177 nM | TGI [3]: 1.57 µM and 0.423 µM | GI50 [4]: 1670 nM and 247 nM | GI50 [5]: 1250 nM and 541 nM | TGI [5]: 6.47 µM and 4.68 µM | GI50 [6]: 1.56 µM and 2.34 µM | TGI [6]: 11.2 µM and 19.4 µM | GI50 [7]: 1550 nM and 183 nM | TGI [7]: 9.38 µM and 7.9 µM | GI50 [8]: 1.58 µM and 1.57 µM | TGI [8]: 7.48 µM and 12.9 µM | GI50 [9]: 2.02 µM and 3.58 µM | TGI [9]: 50 µM and 20.4 µM | GI50 [10]: 1540 nM and 356 nM

COc1ccc(-c2nn(-c3cccc(Cl)c3)cc2/C=C2\NC(=S)N(c3ccc(Cl)cc3)C2=O)cc1
GI50 [1]: 7.41 µM | TGI [1]: > 25 µM | GI50 [2]: 2860 nM | TGI [2]: 6.99 µM | GI50 [3]: 4220 nM | TGI [3]: 11 µM | GI50 [4]: 2620 nM | TGI [4]: 7.02 µM | GI50 [5]: 3720 nM | TGI [5]: > 25 µM | GI50 [6]: 3.77 µM | TGI [6]: 8.22 µM | GI50 [7]: 3610 nM | TGI [7]: 9.7 µM | GI50 [8]: 6.31 µM | TGI [8]: > 25 µM | GI50 [9]: 8.51 µM | TGI [9]: > 25 µM | GI50 [10]: 3530 nM | TGI [10]: 15.9 µM

Cc1nnc(C[C@@H]2C=C(c3ccc(Cl)cc3)c3ccccc3-n3c(C)nnc32)o1
GI50 [1]: 13.1 µM | TGI [1]: 73.5 µM | GI50 [2]: 4810 nM | TGI [2]: > 76.1 µM | GI50 [3]: 1810 nM | TGI [3]: 19.7 µM | GI50 [4]: 2940 nM | TGI [4]: > 67.4 µM | GI50 [5]: 1250 nM | TGI [5]: > 100 µM | GI50 [6]: 0.262 µM | TGI [6]: 12 µM | GI50 [7]: 719 nM | TGI [7]: > 92.7 µM | GI50 [8]: 4.7 µM | TGI [8]: > 100 µM | GI50 [9]: 12 µM | TGI [9]: 68.7 µM | GI50 [10]: 135 nM | TGI [10]: 19.8 µM

C[C@@H]1CC[C@H]2[C@@H](C)C(O)O[C@@H]3O[C@]4(C)CC[C@@H]1[C@]32OO4 (stereo partly drawn)
GI50 [1]: 1.4 µM | TGI [1]: > 62.7 µM | GI50 [2]: 532 nM | TGI [2]: 16.6 µM | GI50 [3]: 530 nM | TGI [3]: 16.6 µM | GI50 [4]: 389 nM | TGI [4]: 12.7 µM | GI50 [5]: 1260 nM | TGI [5]: 13 µM | GI50 [6]: 11.8 µM | TGI [6]: > 60.3 µM | GI50 [7]: 285 nM | GI50 [8]: 0.735 µM | TGI [8]: 39.4 µM | GI50 [9]: 0.347 µM | TGI [9]: 17 µM | GI50 [10]: 143 nM

CCOC(=O)C1(CC(=O)O)CCCC1=O (stereo not drawn)
TGI [1]: > 100 µM | TGI [2]: > 100 µM | TGI [3]: > 100 µM | TGI [4]: > 100 µM | TGI [5]: > 100 µM | TGI [6]: > 100 µM | TGI [7]: > 100 µM | TGI [8]: > 100 µM | TGI [9]: > 100 µM | TGI [10]: > 100 µM
